# Reference: patent US20230278972A1, “SUBSTITUTED HALOALKYL SULFONANILIDE HERBICIDES” (FMC Corporation, priority 2020, published 2023)
# Columns and labels:
# Assay type in all cases: in vivo
# [1] = tested on: Foxtail, Giant (giant foxtail, Setaria faberi); experiment: Test A postemergence, Foxtail, Giant; conditions: Postemergence
# How it was run: (§1)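 After sowing into a sand-amended loam, pots for the preemergence test were treated by spraying directly onto soil. In parallel, seedlings at the one- to two-leaf stage and 2 to 10 cm tall were treated postemergence with the identical surfactant-containing formulation.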
# [2] = tested on: Ryegrass, Italian (Italian ryegrass, Lolium multiflorum); experiment: Test A postemergence, Ryegrass, Italian; conditions: Postemergence
# How it was run: as §1
# [3] = tested on: wheat (Triticum aestivum); experiment: Test A postemergence, wheat; conditions: Postemergence
# How it was run: (§2)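 Test chemicals, formulated in a non-phytotoxic solvent mixture with surfactant, were sprayed postemergence on plants 2 to 10 cm tall at the one- to two-leaf stage. Preemergence treatment was a directed soil spray onto freshly seeded pots. Both used a loam soil and sand blend.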
# [4] = tested on: ragweed (common ragweed, Ambrosia artemisiifolia); experiment: Test A postemergence, ragweed; conditions: Postemergence
# How it was run: as §1
# [5] = tested on: barnyardgrass (Echinochloa crus-galli); experiment: Test A preemergence, barnyardgrass; conditions: Preemergence; for Plant response rating, Barnyardgrass: 0 to 100 scale (0 no effect, 100 complete control); for Barnyardgrass plant response rating: 125 g ai/ha, visual injury on 0 to 100 scale (0 no effect, 100 complete control), approximately 10 days
# How it was run: as §1
# [6] = tested on: ragweed (common ragweed, Ambrosia artemisiifolia); experiment: Test A preemergence, ragweed; conditions: Preemergence; for Plant response rating, Ragweed: 0 to 100 scale (0 no effect, 100 complete control); for Ragweed plant response rating: 125 g ai/ha, visual injury on 0 to 100 scale (0 no effect, 100 complete control), approximately 10 days
# How it was run: as §1
# [7] = tested on: kochia (Bassia scoparia); experiment: Test A preemergence, kochia; conditions: Preemergence; for Plant response rating, Kochia: 0 to 100 scale (0 no effect, 100 complete control); for Kochia plant response rating: 125 g ai/ha, visual injury on 0 to 100 scale (0 no effect, 100 complete control), approximately 10 days
# How it was run: as §1
# [8] = tested on: kochia (Bassia scoparia); experiment: Test A postemergence, kochia; conditions: Postemergence
# How it was run: as §1
# [9] = tested on: pigweed (Amaranthus retroflexus); experiment: Test A postemergence, pigweed; conditions: Postemergence
# How it was run: as §1
# [10] = tested on: Ryegrass, Italian (Italian ryegrass, Lolium multiflorum); experiment: Test A preemergence, Ryegrass, Italian; conditions: Preemergence; for Plant response rating, Ryegrass, Italian: 0 to 100 scale (0 no effect, 100 complete control); for Ryegrass, Italian plant response rating: 125 g ai/ha, visual injury on 0 to 100 scale (0 no effect, 100 complete control), approximately 10 days
# How it was run: as §1
# [11] = tested on: barnyardgrass (Echinochloa crus-galli); experiment: Test A postemergence, barnyardgrass; conditions: Postemergence
# How it was run: as §2
# [12] = tested on: pigweed (Amaranthus retroflexus); experiment: Test A preemergence, pigweed; conditions: for Plant response rating, Pigweed: 0 to 100 scale (0 no effect, 100 complete control); for Pigweed plant response rating: 125 g ai/ha, visual injury on 0 to 100 scale (0 no effect, 100 complete control), approximately 10 days
# How it was run: as §2
# [13] = tested on: Foxtail, Giant (giant foxtail, Setaria faberi); experiment: Test A preemergence, Foxtail, Giant; conditions: Preemergence; for Plant response rating, Foxtail, Giant: 0 to 100 scale (0 no effect, 100 complete control); for Foxtail, Giant plant response rating: 125 g ai/ha, visual injury on 0 to 100 scale (0 no effect, 100 complete control), approximately 10 days
# How it was run: as §1
# [14] = tested on: blackgrass (Alopecurus myosuroides); experiment: Test A postemergence, blackgrass; conditions: Postemergence
# How it was run: as §1
# [15] = tested on: corn (Zea mays); experiment: Test A postemergence, corn; conditions: Postemergence
# How it was run: as §1
# [16] = tested on: galium (catchweed bedstraw, Galium aparine); experiment: Test A postemergence, galium; conditions: Postemergence
# How it was run: as §2
# [17] = 31 g ai/ha, visual injury on 0 to 100 scale (0 no effect, 100 complete control), approx. 10 days
# [18] = 125 g ai/ha, 0 to 100 scale (0 no effect, 100 complete control)
# [19] = 31 g ai/ha, visual injury, approx. 10 days
# [20] = 500 g ai/ha, visual injury vs untreated controls after approx. 10 days, 0 to 100 scale (0 no effect, 100 complete control)
# [21] = 125 g ai/ha, visual injury approx. 10 days, 0 to 100 scale (0 no effect, 100 complete control)
# [22] = 500 g ai/ha, visual injury, 0 to 100 scale (0 no effect, 100 complete control), approx. 10 days
smiles,measurement,setting,value
Cc1cc(C)c(N2CC3(CCOCC3)OC2=O)cc1NS(=O)(=O)C(F)(F)F [Compound 156],"Plant response rating, Foxtail, Giant",[1]; [17],30
same,"Plant response rating, Foxtail, Giant",[1]; [18],70
same,"Plant response rating, Ryegrass, Italian",[2]; [17],0
same,"Plant response rating, Ryegrass, Italian",[2]; [18],10
same,"Plant response rating, Wheat",[3]; [17],30
same,"Plant response rating, Wheat",[3]; [18],40
same,"Plant response rating, Ragweed",[4]; [17],90
same,"Plant response rating, Ragweed",[4]; [18],90
same,"Plant response rating, Barnyardgrass",[5]; [19],70
same,Barnyardgrass plant response rating,[5],100
same,"Plant response rating, Ragweed",[6]; [19],60
same,Ragweed plant response rating,[6],90
same,"Plant response rating, Kochia",[7]; [19],30
same,Kochia plant response rating,[7],50
same,"Plant response rating, Kochia",[8]; [17],40
same,"Plant response rating, Kochia",[8]; [18],70
same,"Plant response rating, Pigweed",[9]; [17],60
same,"Plant response rating, Pigweed",[9]; [18],90
same,"Plant response rating, Ryegrass, Italian",[10]; [19],50
same,"Ryegrass, Italian plant response rating",[10],70
same,"Plant response rating, Barnyardgrass",[11]; [17],90
same,"Plant response rating, Barnyardgrass",[11]; [18],90
same,"Plant response rating, Pigweed",[12]; [19],80
same,Pigweed plant response rating,[12],100
same,"Plant response rating, Foxtail, Giant",[13]; [19],50
same,"Foxtail, Giant plant response rating",[13],100
same,"Plant response rating, Blackgrass",[14]; [17],0
same,"Plant response rating, Blackgrass",[14]; [18],40
same,"Plant response rating, Corn",[15]; [17],0
same,"Plant response rating, Corn",[15]; [18],20
same,"Plant response rating, Galium",[16]; [17],100
same,"Plant response rating, Galium",[16]; [18],100
Cc1cc(Cl)c(C2=NOC(C)(C)C2)cc1NS(=O)(=O)C(F)(F)F [Compound 183],"Plant response rating, Foxtail, Giant",[1]; [18],0
same,"Foxtail, Giant plant response rating",[1]; [20],10
same,"Plant response rating, Ryegrass, Italian",[2]; [18],0
same,"Ryegrass, Italian plant response rating",[2]; [20],0
same,"Plant response rating, Wheat",[3]; [18],0
same,Wheat plant response rating,[3]; [20],0
same,"Plant response rating, Ragweed",[4]; [18],60
same,Ragweed plant response rating,[4]; [20],80
same,Barnyardgrass plant response rating,[5],90
same,"Plant response rating, Barnyardgrass",[5]; 500 g ai/ha,100
same,Ragweed plant response rating,[6],20
same,"Plant response rating, Ragweed",[6]; 500 g ai/ha,90
same,Kochia plant response rating,[7],20
same,"Plant response rating, Kochia",[7]; 500 g ai/ha,60
same,"Plant response rating, Kochia",[8]; [18],10
same,Kochia plant response rating,[8]; [20],50
same,"Plant response rating, Pigweed",[9]; [18],30
same,Pigweed plant response rating,[9]; [20],30
same,"Ryegrass, Italian plant response rating",[10],70
same,"Plant response rating, Ryegrass, Italian",[10]; 500 g ai/ha,100
same,"Plant response rating, Barnyardgrass",[11]; [18],20
same,Barnyardgrass plant response rating,[11]; [20],70
same,Pigweed plant response rating,[12],70
same,"Plant response rating, Pigweed",[12]; 500 g ai/ha,80
same,"Foxtail, Giant plant response rating",[13],50
same,"Plant response rating, Foxtail, Giant",[13]; 500 g ai/ha,70
same,"Plant response rating, Blackgrass",[14]; [18],10
same,Blackgrass plant response rating,[14]; [20],10
same,"Plant response rating, Corn",[15]; [18],0
same,Corn plant response rating,[15]; [20],30
same,"Plant response rating, Galium",[16]; [18],70
same,Galium plant response rating,[16]; [20],90
Cc1cc(C)c(-c2cc(C(C)C)nn(C)c2=O)cc1NS(=O)(=O)C(F)(F)F [Compound 41],"Plant response rating, Foxtail, Giant",[1]; [21],0
same,"Plant response rating, Foxtail, Giant",[1]; [22],30
same,"Plant response rating, Ryegrass, Italian",[2]; [21],60
same,"Plant response rating, Ryegrass, Italian",[2]; [22],60
same,"Plant response rating, Wheat",[3]; [21],50
same,"Plant response rating, Wheat",[3]; [22],60
same,"Plant response rating, Ragweed",[4]; [21],40
same,"Plant response rating, Ragweed",[4]; [22],70
same,Barnyardgrass plant response rating,[5],50
same,"Plant response rating, Barnyardgrass",[5]; 500 g ai/ha,90
same,Ragweed plant response rating,[6],30
same,"Plant response rating, Ragweed",[6]; 500 g ai/ha,80
same,Kochia plant response rating,[7],0
same,"Plant response rating, Kochia",[7]; 500 g ai/ha,0
same,"Plant response rating, Kochia",[8]; [21],0
same,"Plant response rating, Kochia",[8]; [22],0
same,"Plant response rating, Pigweed",[9]; [21],0
same,"Plant response rating, Pigweed",[9]; [22],0
same,"Ryegrass, Italian plant response rating",[10],60
same,"Plant response rating, Ryegrass, Italian",[10]; 500 g ai/ha,80
same,"Plant response rating, Barnyardgrass",[11]; [21],0
same,"Plant response rating, Barnyardgrass",[11]; [22],80
same,Pigweed plant response rating,[12],0
same,"Plant response rating, Pigweed",[12]; 500 g ai/ha,0
same,"Foxtail, Giant plant response rating",[13],10
same,"Plant response rating, Foxtail, Giant",[13]; 500 g ai/ha,80
same,"Plant response rating, Blackgrass",[14]; [21],0
same,"Plant response rating, Blackgrass",[14]; [22],40
same,"Plant response rating, Corn",[15]; [21],0
same,"Plant response rating, Corn",[15]; [22],0
same,"Plant response rating, Galium",[16]; [21],10
same,"Plant response rating, Galium",[16]; [22],30
